Values quoted from earlier work in EP2408442B1, “PHARMACEUTICAL COMPOSITION PRESENTING ANTI-INFLAMMATORY PROPERTIES” (Bioxtract S.A., priority 2009, dated 2010).

Conditions: 42 or 84 mg of oral not formulated curcumin, including metabolised forms (glucuronides or sulfates)

SMILES: COc1cc(C=CC(=O)CC(=O)C=Cc2ccc(O)c(OC)c2)ccc1O [curcumin, 1,7-bis(4-hydroxyl-3-methoxyphenyl)-1,6-heptadiene-3,5-dione]
- oral bioavailability: not bioavailable at all
